Consider one compound from PMC11094793, “Discovery of LLC0424 as a Potent and Selective in Vivo NSD2 PROTAC Degrader” (Journal of Medicinal Chemistry, 2024).

For assay [1], the system named is RPMI-8402 cells. Briefly: Proliferation assay (CellTiter-Glo, 9 days), RPMI-8402. In kind it is cell-based, human. As to conditions: 5 μM (Fig 6E) or 2 μM (Fig S4A). On the procedure: 2 × 10^3 cells per well were seeded in 5 replicates into 96-well plates and treated with 5 μM of the compound. Every 4 days, we added the compound with 5 μL of the 20* compound-containing mixture, reaching 1*concentration. Cell proliferation was evaluated by CellTiter-Glo assay (Promega).

The subject of assay [2] is NSD2-overexpressed SEM cells. Briefly: Viability of NSD2-overexpressed versus parental SEM cells. In kind it is cell-based, human. The note with it: 2 μM LLC0424, 9 days, CTG assay. On the procedure:
NSD2 is the primary methyltransferase that transfers dimethyl to H3K36 in ALL with NSD2 gain-of-function mutation. Therefore, the effects of LLC0424 on H3K36me2 was evaluated in SEM and RPMI-8402 cells. […] Meanwhile, LLC0424 treatment also led to downregulation of H3K36Me2 in RPMI-8402 cells within 24 h (Figure 6B). […] We also conducted a colony formation assay to evaluate the effect of LLC0424 on the stem cell-like property of the leukemia cells. […]
Figure S4. […] (A) SEM or RPMI-8402 cells were treated with 2 µM LLC0424, degrader 6, degrader 7, or DMSO for 9 days and quantified for cell viability by CellTiter-Glo (CTG) assay at different days. Data are reported as the mean of five independent experiments ± SD; (B) RNA sequencing of SEM cells treated with LLC0424N or DMSO; (C) Immunoblotting of NSD2, and H3 in parental and NSD2-overexpression SEM cell lines; (D) parental or NSD2 overexpression SEM cells were treated with DMSO or 2 µM LLC0424 for 9 days and quantified for cell viability by CTG assay. Data are reported as the mean of four independent experiments ± SD; (E) VCaP cells and 22RV1 cells were treated with DMSO, 2 µM LLC0424, or 2 µM LLC0424N for 18 days and quantified for cell viability by CTG assay at different days. […]

In assay [3] the target is T1, NSD2 (Homo sapiens, UniProt O96028).
T1 sequence (O96028 1-1365): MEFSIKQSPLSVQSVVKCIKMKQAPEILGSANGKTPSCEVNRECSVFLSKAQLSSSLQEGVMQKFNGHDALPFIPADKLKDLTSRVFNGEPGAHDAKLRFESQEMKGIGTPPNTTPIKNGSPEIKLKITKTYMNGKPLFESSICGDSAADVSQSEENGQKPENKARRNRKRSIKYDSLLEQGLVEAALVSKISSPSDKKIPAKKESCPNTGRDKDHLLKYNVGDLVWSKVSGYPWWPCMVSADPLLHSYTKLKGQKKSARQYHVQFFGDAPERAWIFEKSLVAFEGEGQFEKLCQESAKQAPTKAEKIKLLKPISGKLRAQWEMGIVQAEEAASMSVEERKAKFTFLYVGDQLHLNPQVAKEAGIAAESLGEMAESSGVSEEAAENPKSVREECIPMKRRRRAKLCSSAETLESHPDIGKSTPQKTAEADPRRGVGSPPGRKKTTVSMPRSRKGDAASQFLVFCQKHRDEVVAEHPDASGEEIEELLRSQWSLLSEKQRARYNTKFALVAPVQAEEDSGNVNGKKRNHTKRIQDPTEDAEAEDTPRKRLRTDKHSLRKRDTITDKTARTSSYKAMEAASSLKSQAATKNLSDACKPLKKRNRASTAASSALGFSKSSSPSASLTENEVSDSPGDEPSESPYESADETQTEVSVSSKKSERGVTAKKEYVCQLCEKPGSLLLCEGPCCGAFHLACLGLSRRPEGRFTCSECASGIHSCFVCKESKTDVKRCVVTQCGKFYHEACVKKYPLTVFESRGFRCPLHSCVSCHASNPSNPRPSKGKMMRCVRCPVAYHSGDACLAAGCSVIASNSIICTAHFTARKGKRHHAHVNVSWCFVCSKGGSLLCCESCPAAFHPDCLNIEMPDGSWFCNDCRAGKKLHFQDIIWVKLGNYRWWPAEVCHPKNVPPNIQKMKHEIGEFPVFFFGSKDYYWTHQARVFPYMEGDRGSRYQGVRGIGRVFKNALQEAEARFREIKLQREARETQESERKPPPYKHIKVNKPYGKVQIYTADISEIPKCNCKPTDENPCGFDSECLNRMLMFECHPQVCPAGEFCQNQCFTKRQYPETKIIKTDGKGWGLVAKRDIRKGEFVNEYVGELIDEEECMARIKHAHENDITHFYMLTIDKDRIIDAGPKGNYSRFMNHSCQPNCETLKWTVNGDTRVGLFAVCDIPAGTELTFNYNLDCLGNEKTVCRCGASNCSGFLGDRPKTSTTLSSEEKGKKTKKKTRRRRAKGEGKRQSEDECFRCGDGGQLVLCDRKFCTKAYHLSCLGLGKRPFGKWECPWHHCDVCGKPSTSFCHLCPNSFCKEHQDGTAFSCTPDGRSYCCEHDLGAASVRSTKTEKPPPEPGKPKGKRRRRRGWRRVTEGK
Kind of assay: Compound screening: NSD2 degradation by immunoblotting in VCaP cells. The note with it: VCaP, 24 h.
Description: After treatment, the cultured cells were collected and rinsed with phosphate-buffered saline (PBS) in room temperature. The cells were treated with RIPA buffers (ThermoFisher Scientific) supplemented with Halt Protease and Phosphatase Inhibitor Cocktail (ThermoFisher Scientific). After sonication and centrifugation, the total amount of protein in the cell lysates was measured by Pierce Bovine Serum Albumin Standard Pre-Diluted Set (ThermoFisher Scientific). […] After incubated with HRP-conjugated secondary antibodies, the membranes were developed with ECL Prime Western Blotting Detection Reagent (cytiva) and imaged on Odyssey Fc Imager (LiCOR Biosciences).
Western blot was then performed as previously described to detect NSD2 degradation.

Where two headings read alike, the source gives them in different places.

With `O=C1CCC(N2C(=O)c3ccc(N4CCC(NC(=O)c5ccc(NC(=O)c6ccc(CN(C(=O)c7ccc8c(c7)OCC(=O)N8)C7CC7)cc6)cc5)CC4)cc3C2=O)C(=O)N1` (stereo not shown) [compound 10l, N-Cyclopropyl-N-(4-((4-((1-(2-(2,6-dioxopiperidin-3-yl)-1,3-dioxoisoindolin-5-yl)piperidin-4-yl)carbamoyl)phenyl)carbamoyl)benzyl)-3-oxo-3,4-dihydro-2H-benzo[b][1,4]oxazine-7-carboxamide], the “cell growth on treatment for 9 days” value in assay [1] is on record as “significantly inhibited”. Moreover, the “cell viability in NSD2-overexpressed versus parental SEM cells” value in assay [2] was “significantly higher in NSD2-overexpressed SEM cells”. The Dmax at 2 µM in assay [3] (read-out: 2.0 μM Degradation % (VCaP)) and in assay [3] (read-out: % Degradation) was 95% throughout.
